Data from patent EP4806892A1, “CEREBLON E3 UBIQUITIN LIGASE INHIBITOR” (GAN & LEE PHARMACEUTICALS CO., LTD., priority 2023, dated 2025).

Target: T1, AR protein (Homo sapiens, UniProt P10275)
T1 construct: AR-positive human prostate cancer cells VCaP (cell source: ATCC); host or cells: VCaP
T1 sequence (P10275 1-920): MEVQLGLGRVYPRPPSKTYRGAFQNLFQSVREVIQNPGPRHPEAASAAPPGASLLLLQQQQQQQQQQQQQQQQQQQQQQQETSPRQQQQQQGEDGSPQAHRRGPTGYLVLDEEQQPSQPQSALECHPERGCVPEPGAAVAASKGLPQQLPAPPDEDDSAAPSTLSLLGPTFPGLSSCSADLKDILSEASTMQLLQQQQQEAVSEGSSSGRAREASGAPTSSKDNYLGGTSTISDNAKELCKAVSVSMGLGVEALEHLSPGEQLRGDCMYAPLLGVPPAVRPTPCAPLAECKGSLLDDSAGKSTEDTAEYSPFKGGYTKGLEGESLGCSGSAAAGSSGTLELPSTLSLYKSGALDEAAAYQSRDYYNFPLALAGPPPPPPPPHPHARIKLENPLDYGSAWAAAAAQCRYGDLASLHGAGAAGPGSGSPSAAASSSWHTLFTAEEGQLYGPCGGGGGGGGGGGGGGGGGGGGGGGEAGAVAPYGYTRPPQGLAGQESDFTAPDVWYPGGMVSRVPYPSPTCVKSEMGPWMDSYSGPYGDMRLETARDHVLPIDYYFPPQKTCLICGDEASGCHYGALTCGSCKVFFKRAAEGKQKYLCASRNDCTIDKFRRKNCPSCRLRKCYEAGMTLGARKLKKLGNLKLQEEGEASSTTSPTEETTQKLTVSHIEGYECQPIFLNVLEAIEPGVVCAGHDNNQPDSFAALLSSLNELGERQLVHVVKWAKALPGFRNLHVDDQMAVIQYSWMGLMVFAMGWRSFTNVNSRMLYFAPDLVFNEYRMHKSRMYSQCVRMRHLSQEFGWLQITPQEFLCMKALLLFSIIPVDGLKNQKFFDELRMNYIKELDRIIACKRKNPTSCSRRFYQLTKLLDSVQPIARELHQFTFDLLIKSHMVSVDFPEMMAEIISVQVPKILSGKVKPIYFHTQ
Assay: AR protein degradation in VCaP cells (Western blot)
Assay type: cell-based
Details: 8h
Description: AR-positive human prostate cancer cells VCaP (cell source: ATCC) were cultured in DMEM (GiBco catalog number 11995-065) containing 10% FBS (Hyclone catalog number SH30406.05), and the cells were inoculated in a six-well microplate (Thermo catalog number 140675) at a density of 3 × 10^5 cells/well. After being cultured overnight in a carbon dioxide incubator (ESCO), the prepared compound of the present invention and the positive control sample ARV-766 (energy chemical) solution of different concentrations were added at a volume of 1 µL/well to make the final concentrations of the compound and the positive control sample reach 5nM and 0.5nM, respectively. At the same time, the corresponding solvent control was set and cultured for 8h. After 8h of culture, the culture medium was removed, and the cells were washed with PBS. RIPA lysis buffer containing 1% Protease Inhibitor Cocktail was added. After lysis and centrifugation, a total protein extract was obtained, and the protein concentration in the extract was detected by BCA method. Protein electrophoresis was performed using SDS-PAGE, and then the protein was transferred to a PVDF (Millipore Sigma catalog number PSRP010R5) membrane at a constant voltage of 100V for 60min. The PVDF membrane was placed in a 5% milk powder 1×TBST solution and blocked at room temperature for 1h. The primary antibody solution (Anti-Androgen receptor, Cell Signaling Technology catalog number: 5153S; 1:2000 dilution) was prepared and incubated at 4°C overnight. The primary antibody solution was discarded and the PVDF membrane was washed with 1×TBST for 5 minutes each time, three times. The secondary antibody solution (Thermo catalog number SA5-35571; 1:7500 dilution) was prepared and incubated at room temperature for 1 hour. The secondary antibody solution was discarded and the PVDF membrane was washed with 1×TBST for 5 minutes each time, three times. A dual-color infrared laser imaging system (Licor catalog number Odyssey CLX) was used for Western membrane imaging. The Image Studio software was used to analyze the grayscale of the bands. GAPDH protein bands were also detected for each sample as an internal reference. The AR protein degradation rate of the compound and the positive control sample was calculated based on the grayscale of the protein bands. Among them, "A" means degradation rate ≥ 50%, "B" means 50%> degradation rate ≥ 20%, "C" means 20% degradation rate ≥ 10%, and "D" means degradation rate less than 10%.

Row | Compound | Degradation rate of AR protein in VCAP cells (0.5 nM) | Degradation rate of AR protein in VCAP cells (5 nM)
1 | C[C@H]1CC2(CCN(c3ccc(C(=O)N4CCC(CN5CCN6c7ccc(N8CCC(=O)NC8=O)cc7OCC[C@H]6C5)CC4)cc3)CC2)CN1c1ccc(C#N)c(C(F)(F)F)c1 [A-P-195] | B (50%> degradation rate ≥ 20%) | A (degradation rate ≥ 50%)
2 | COc1cc(O[C@H]2C(C)(C)[C@H](NC(=O)c3ccc(N4CCC(F)(CN5CCN6c7ccc(N8CCC(=O)NC8=O)cc7OCC[C@H]6C5)CC4)cc3)C2(C)C)ccc1C#N [A-P-196] | A (degradation rate ≥ 50%) | A (degradation rate ≥ 50%)
3 | C[C@H]1CC2(CCN(c3ccc(C(=O)N4CCC(CN5CCC6(COc7cc(N8CCC(=O)NC8=O)ccc76)C(F)(F)C5)CC4)cc3)CC2)CN1c1ccc(C#N)c(Cl)c1 (stereo partly drawn) [A-P-233] |  | B (50%> degradation rate ≥ 20%)
4 | C[C@H]1CC2(CCN(c3ccc(C(=O)N4CCC(CN5CCC6(CC5)CN(C)c5ccc(N7CCC(=O)NC7=O)cc5O6)CC4)cc3)CC2)CN1c1ccc(C#N)c(Cl)c1 [A-P-235, (S)-2-chloro-4-(8-(4-(4-((7-(2,4-dioxotetrahydropyrimidin-1(2H)-yl)-4-methyl-3,4-dihydrospiro[benzo[b][1,4]oxazin-2,4'-piperidine]-1'-yl)methyl)piperidine-1-carbonyl)phenyl)-3-methyl-2,8-diazaspiro[4.5]decane-2-yl)benzonitrile] | A (degradation rate ≥ 50%) | A (degradation rate ≥ 50%)
5 | COc1cc(O[C@H]2C(C)(C)[C@H](NC(=O)c3ccc(N4CCC(CN5CCN(c6ccc(C(=O)N[C@H]7CCC(=O)NC7=O)c(F)c6)CC5)CC4)cc3)C2(C)C)ccc1C#N [ARV766, reference compound] | A (degradation rate ≥ 50%) | A (degradation rate ≥ 50%)
